SMILES strings stand for the structures.

The target of the first test is T1, C-X-C chemokine receptor type 1 (Homo sapiens, UniProt P25024). Note: in other assays of this panel Not Active means under 50% inhibition at 10 µM.
T1 sequence (P25024 whole entry): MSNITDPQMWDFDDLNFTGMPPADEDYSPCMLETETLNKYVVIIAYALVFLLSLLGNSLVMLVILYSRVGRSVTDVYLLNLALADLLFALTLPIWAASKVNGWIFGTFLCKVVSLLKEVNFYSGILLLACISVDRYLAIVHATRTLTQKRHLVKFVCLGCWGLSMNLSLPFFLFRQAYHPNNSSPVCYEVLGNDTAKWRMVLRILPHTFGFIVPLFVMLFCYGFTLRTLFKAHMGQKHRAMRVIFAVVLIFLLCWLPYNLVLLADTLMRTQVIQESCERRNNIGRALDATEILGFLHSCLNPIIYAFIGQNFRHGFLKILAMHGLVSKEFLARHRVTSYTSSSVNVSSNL
Assay: not given
Conditions: not given
Turning to `CCCC[C@@H](CC)COC(=O)c1ccccc1C(=O)OC[C@@H](CC)CCCC` [BIS(2-ETHYLHEXYL)PHTHALATE], the IC50 entry is reported as “Not Active”.

For `Nc1nc(=O)[nH]cc1F` [FLUCYTOSINE], the IC50 result was “Not Active”.

For `N#C[C@H](O[C@@H]1O[C@H](CO[C@@H]2O[C@H](CO)[C@@H](O)[C@H](O)[C@H]2O)[C@@H](O)[C@H](O)[C@H]1O)c1ccccc1` [AMYGDALIN], the IC50 result is on record as “Not Active”.

In the case of `CNC(=O)Oc1ccc2c(c1)[C@]1(C)CCN(C)[C@@H]1N2C` [PHYSOSTIGMINE], the IC50 entry is “Not Active”.

Take `Nc1nc2c(ncn2COC(CO)CO)c(=O)[nH]1` [GANCICLOVIR]: the IC50 entry is reported as “Not Active”.

For another test, the target named is T2, Vasoactive intestinal polypeptide receptor 1 (Homo sapiens, UniProt P32241). Note: in other assays of this panel Not Active means under 50% inhibition at 10 µM.
T2 sequence (P32241 whole entry): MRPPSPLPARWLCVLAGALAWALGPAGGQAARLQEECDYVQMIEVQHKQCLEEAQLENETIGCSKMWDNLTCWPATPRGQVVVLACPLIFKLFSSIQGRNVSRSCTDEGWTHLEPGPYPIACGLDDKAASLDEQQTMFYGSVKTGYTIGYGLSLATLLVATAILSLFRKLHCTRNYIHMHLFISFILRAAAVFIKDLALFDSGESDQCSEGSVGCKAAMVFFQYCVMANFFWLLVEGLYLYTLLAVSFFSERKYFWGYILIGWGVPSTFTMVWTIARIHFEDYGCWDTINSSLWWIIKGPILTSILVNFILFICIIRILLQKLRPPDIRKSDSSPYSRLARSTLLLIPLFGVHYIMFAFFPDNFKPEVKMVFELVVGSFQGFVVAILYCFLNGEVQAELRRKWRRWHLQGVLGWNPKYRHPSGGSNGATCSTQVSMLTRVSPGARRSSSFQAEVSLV
Assay: not given
The class given is cell membranes, Membrane. The conditions noted are these: ht-29.
With `CCCC[C@@H](CC)COC(=O)c1ccccc1C(=O)OC[C@@H](CC)CCCC` [BIS(2-ETHYLHEXYL)PHTHALATE], the IC50 result was “Not Active”.

As to `Nc1nc(=O)[nH]cc1F` [FLUCYTOSINE], the IC50 result is recorded as “Not Active”.

Take `N#C[C@H](O[C@@H]1O[C@H](CO[C@@H]2O[C@H](CO)[C@@H](O)[C@H](O)[C@H]2O)[C@@H](O)[C@H](O)[C@H]1O)c1ccccc1` [AMYGDALIN]: the IC50 entry is reported as “Not Active”.

As for `CNC(=O)Oc1ccc2c(c1)[C@]1(C)CCN(C)[C@@H]1N2C` [PHYSOSTIGMINE], the IC50 entry is “Not Active”.

As to `Nc1nc2c(ncn2COC(CO)CO)c(=O)[nH]1` [GANCICLOVIR], the IC50 result is “Not Active”.

The target in the next test is T3, Cholecystokinin receptor type A (Homo sapiens, UniProt P32238). Note: in other assays of this panel Not Active means under 50% inhibition at 10 µM.
T3 sequence (P32238 whole entry): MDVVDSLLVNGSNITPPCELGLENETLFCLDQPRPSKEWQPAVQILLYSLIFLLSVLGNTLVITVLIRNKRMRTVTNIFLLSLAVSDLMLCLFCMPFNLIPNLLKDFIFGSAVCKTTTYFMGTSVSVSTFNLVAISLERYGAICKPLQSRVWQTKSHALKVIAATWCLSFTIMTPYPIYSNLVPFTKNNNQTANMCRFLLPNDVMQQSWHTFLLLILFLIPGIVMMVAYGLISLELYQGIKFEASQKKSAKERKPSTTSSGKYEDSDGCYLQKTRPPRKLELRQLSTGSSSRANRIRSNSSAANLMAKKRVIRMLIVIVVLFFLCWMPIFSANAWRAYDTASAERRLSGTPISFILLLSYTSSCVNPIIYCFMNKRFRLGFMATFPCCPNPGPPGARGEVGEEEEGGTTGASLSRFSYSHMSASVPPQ
Assay: not given
The note with it: 1321-n1. Format: cell membranes, Membrane.
Consider `CCCC[C@@H](CC)COC(=O)c1ccccc1C(=O)OC[C@@H](CC)CCCC` [BIS(2-ETHYLHEXYL)PHTHALATE], for which the IC50 result is given as “Not Active”.

As to `Nc1nc(=O)[nH]cc1F` [FLUCYTOSINE], the IC50 result is reported as “Not Active”.

With `N#C[C@H](O[C@@H]1O[C@H](CO[C@@H]2O[C@H](CO)[C@@H](O)[C@H](O)[C@H]2O)[C@@H](O)[C@H](O)[C@H]1O)c1ccccc1` [AMYGDALIN], the IC50 entry was “Not Active”.

As to `CNC(=O)Oc1ccc2c(c1)[C@]1(C)CCN(C)[C@@H]1N2C` [PHYSOSTIGMINE], the IC50 entry was “Not Active”.

Turning to `Nc1nc2c(ncn2COC(CO)CO)c(=O)[nH]1` [GANCICLOVIR], the IC50 entry is recorded as “Not Active”.

The target of another test is T4, Glucocorticoid receptor (Homo sapiens, UniProt P04150). Note: in other assays of this panel Not Active means under 50% inhibition at 10 µM.
T4 sequence (P04150 whole entry): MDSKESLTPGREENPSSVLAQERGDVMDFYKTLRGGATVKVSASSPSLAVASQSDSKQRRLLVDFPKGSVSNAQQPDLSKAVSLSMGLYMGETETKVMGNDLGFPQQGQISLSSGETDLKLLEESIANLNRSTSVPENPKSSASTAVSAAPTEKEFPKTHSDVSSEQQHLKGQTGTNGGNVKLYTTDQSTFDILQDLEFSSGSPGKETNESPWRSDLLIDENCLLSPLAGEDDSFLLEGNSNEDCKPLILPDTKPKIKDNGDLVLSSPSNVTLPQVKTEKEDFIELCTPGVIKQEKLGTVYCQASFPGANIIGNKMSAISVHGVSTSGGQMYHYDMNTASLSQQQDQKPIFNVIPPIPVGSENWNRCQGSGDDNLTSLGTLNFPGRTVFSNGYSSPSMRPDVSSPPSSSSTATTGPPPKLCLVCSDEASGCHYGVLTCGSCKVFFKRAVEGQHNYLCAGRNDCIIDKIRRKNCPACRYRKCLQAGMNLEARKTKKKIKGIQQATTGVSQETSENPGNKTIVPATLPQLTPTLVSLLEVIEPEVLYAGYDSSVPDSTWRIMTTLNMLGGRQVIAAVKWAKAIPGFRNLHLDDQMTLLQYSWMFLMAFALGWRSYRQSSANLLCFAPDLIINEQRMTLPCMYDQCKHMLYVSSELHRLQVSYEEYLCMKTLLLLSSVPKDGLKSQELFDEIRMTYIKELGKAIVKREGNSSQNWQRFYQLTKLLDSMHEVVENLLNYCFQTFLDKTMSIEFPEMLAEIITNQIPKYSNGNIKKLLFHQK
Assay: not given
The note with it: hela s3.
Regarding `CCCC[C@@H](CC)COC(=O)c1ccccc1C(=O)OC[C@@H](CC)CCCC` [BIS(2-ETHYLHEXYL)PHTHALATE], the IC50 result was “Not Active”.

`Nc1nc(=O)[nH]cc1F` [FLUCYTOSINE]: the IC50 entry is reported as “Not Active”.

Turning to `N#C[C@H](O[C@@H]1O[C@H](CO[C@@H]2O[C@H](CO)[C@@H](O)[C@H](O)[C@H]2O)[C@@H](O)[C@H](O)[C@H]1O)c1ccccc1` [AMYGDALIN], the IC50 result is recorded as “Not Active”.

For the compound `CNC(=O)Oc1ccc2c(c1)[C@]1(C)CCN(C)[C@@H]1N2C` [PHYSOSTIGMINE], the IC50 result is reported as “Not Active”.

`Nc1nc2c(ncn2COC(CO)CO)c(=O)[nH]1` [GANCICLOVIR]: the IC50 result was “Not Active”.

In the next test the target is Tyrosine-protein kinase Lck (Homo sapiens, UniProt P06239). Nature of the test: DRUGMATRIX: Protein Tyrosine Kinase, LCK enzyme inhibition (substrate: Poly(Glu:Tyr)). The note with it: insect cells; Not Active = under 50% inhibition at 10 µM. The class given is cell-based, Insect cells.
Sequence of Tyrosine-protein kinase Lck (P06239 whole entry): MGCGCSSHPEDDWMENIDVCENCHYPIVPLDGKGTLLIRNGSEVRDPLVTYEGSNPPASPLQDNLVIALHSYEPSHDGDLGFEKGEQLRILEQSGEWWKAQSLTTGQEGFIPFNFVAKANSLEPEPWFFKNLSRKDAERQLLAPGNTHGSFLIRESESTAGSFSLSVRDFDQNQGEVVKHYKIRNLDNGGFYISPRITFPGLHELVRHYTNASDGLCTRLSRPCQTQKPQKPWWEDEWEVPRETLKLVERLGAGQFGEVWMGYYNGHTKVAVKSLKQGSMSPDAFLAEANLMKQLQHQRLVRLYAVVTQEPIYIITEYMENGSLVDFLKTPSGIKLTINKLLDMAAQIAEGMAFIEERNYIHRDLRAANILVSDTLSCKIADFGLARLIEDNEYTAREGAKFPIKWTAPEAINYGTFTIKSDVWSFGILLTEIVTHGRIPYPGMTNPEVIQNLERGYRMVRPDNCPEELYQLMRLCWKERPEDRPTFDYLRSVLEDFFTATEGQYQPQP
As to `CCCC[C@@H](CC)COC(=O)c1ccccc1C(=O)OC[C@@H](CC)CCCC` [BIS(2-ETHYLHEXYL)PHTHALATE], the IC50 result is listed as “Not Active”.

As to `Nc1nc(=O)[nH]cc1F` [FLUCYTOSINE], the IC50 entry is listed as “Not Active”.

For `N#C[C@H](O[C@@H]1O[C@H](CO[C@@H]2O[C@H](CO)[C@@H](O)[C@H](O)[C@H]2O)[C@@H](O)[C@H](O)[C@H]1O)c1ccccc1` [AMYGDALIN], the IC50 result is on record as “Not Active”.

Regarding `CNC(=O)Oc1ccc2c(c1)[C@]1(C)CCN(C)[C@@H]1N2C` [PHYSOSTIGMINE], the IC50 entry is reported as “Not Active”.

For `Nc1nc2c(ncn2COC(CO)CO)c(=O)[nH]1` [GANCICLOVIR], the IC50 entry is reported as “Not Active”.

For the next test, the target named is Receptor tyrosine-protein kinase erbB-2 (Homo sapiens, UniProt P04626). Nature of the test: biochemical. Format: cell-based, Insect cells. The note with it: insect cells.
Sequence of Receptor tyrosine-protein kinase erbB-2 (P04626 whole entry): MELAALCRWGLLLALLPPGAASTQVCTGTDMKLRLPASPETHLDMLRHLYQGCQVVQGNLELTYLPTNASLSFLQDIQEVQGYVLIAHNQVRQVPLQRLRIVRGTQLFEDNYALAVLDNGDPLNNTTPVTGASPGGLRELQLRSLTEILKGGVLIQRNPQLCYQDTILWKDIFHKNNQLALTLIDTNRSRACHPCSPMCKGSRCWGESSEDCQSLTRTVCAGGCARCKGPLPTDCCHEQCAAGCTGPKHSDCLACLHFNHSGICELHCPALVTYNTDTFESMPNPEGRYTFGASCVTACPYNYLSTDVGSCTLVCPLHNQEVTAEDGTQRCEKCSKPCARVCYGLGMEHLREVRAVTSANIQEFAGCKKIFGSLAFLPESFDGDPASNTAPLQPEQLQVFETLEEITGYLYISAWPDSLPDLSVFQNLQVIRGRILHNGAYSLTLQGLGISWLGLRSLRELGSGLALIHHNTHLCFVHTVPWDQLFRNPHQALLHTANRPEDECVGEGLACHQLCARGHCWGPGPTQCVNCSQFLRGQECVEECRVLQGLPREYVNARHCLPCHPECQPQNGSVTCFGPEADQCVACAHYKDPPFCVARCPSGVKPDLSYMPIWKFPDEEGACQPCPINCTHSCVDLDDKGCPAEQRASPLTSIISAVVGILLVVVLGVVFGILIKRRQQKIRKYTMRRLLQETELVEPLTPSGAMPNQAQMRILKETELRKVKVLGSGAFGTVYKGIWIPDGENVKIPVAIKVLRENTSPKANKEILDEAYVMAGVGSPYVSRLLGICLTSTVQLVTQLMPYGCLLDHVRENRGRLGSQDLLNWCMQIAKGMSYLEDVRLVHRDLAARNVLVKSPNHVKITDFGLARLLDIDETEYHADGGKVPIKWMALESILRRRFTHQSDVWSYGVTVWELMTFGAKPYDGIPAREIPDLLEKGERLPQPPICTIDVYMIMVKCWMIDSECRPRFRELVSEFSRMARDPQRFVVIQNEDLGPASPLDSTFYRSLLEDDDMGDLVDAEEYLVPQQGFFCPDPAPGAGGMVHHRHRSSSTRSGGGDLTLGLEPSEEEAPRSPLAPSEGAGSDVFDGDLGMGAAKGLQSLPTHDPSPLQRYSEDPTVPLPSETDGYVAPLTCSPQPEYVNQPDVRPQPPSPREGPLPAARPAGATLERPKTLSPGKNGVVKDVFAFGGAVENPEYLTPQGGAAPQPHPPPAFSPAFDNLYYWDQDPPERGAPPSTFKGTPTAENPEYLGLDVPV
In the case of `CCCC[C@@H](CC)COC(=O)c1ccccc1C(=O)OC[C@@H](CC)CCCC` [BIS(2-ETHYLHEXYL)PHTHALATE], the IC50 entry is “Not Active”.

For the compound `Nc1nc(=O)[nH]cc1F` [FLUCYTOSINE], the IC50 result is given as “Not Active”.

As to `N#C[C@H](O[C@@H]1O[C@H](CO[C@@H]2O[C@H](CO)[C@@H](O)[C@H](O)[C@H]2O)[C@@H](O)[C@H](O)[C@H]1O)c1ccccc1` [AMYGDALIN], the IC50 result is reported as “Not Active”.

As for `CNC(=O)Oc1ccc2c(c1)[C@]1(C)CCN(C)[C@@H]1N2C` [PHYSOSTIGMINE], the IC50 entry is reported as “Not Active”.

`Nc1nc2c(ncn2COC(CO)CO)c(=O)[nH]1` [GANCICLOVIR]: the IC50 entry is reported as “Not Active”.

For the next test, the target named is T5, Estrogen receptor (Homo sapiens, UniProt P03372). Note: in other assays of this panel Not Active means under 50% inhibition at 10 µM.
T5 sequence (P03372 whole entry): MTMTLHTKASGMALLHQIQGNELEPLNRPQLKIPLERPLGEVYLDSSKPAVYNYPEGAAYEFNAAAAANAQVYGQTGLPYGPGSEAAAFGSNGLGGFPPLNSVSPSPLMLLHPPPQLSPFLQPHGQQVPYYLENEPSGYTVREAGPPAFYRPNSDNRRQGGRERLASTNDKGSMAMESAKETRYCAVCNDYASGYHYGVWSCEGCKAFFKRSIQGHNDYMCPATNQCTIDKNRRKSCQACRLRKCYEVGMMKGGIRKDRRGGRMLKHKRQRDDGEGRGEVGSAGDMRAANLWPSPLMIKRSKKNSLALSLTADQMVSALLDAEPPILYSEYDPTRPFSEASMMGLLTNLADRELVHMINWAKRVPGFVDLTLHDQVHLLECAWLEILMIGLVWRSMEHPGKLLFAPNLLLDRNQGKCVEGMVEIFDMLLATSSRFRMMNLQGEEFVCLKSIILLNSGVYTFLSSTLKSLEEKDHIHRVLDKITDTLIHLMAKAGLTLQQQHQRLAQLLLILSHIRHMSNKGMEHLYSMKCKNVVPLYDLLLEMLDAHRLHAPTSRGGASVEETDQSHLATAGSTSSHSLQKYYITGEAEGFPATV
Assay: not given
The conditions noted are these: sf9.
Regarding `CCCC[C@@H](CC)COC(=O)c1ccccc1C(=O)OC[C@@H](CC)CCCC` [BIS(2-ETHYLHEXYL)PHTHALATE], the IC50 result is given as “Not Active”.

As to `Nc1nc(=O)[nH]cc1F` [FLUCYTOSINE], the IC50 entry is on record as “Not Active”.

As for `N#C[C@H](O[C@@H]1O[C@H](CO[C@@H]2O[C@H](CO)[C@@H](O)[C@H](O)[C@H]2O)[C@@H](O)[C@H](O)[C@H]1O)c1ccccc1` [AMYGDALIN], the IC50 result is given as “Not Active”.

Consider `CNC(=O)Oc1ccc2c(c1)[C@]1(C)CCN(C)[C@@H]1N2C` [PHYSOSTIGMINE], for which the IC50 entry is recorded as “Not Active”.

With `Nc1nc2c(ncn2COC(CO)CO)c(=O)[nH]1` [GANCICLOVIR], the IC50 entry is recorded as “Not Active”.

System in another test: not listed separately
Nature of the test: DRUGMATRIX: Platelet-Derived Growth Factor (PDGF) radioligand binding (ligand: [125I] PDGF). The class given is cell-based. The conditions noted are these: nih3t3; Not Active = under 50% inhibition at 10 µM.
Take `CCCC[C@@H](CC)COC(=O)c1ccccc1C(=O)OC[C@@H](CC)CCCC` [BIS(2-ETHYLHEXYL)PHTHALATE]: the IC50 entry is recorded as “Not Active” and the Ki result is recorded as “Not Active”.

For the compound `Nc1nc(=O)[nH]cc1F` [FLUCYTOSINE], the IC50 entry is “Not Active” and the Ki result is listed as “Not Active”.

On to `N#C[C@H](O[C@@H]1O[C@H](CO[C@@H]2O[C@H](CO)[C@@H](O)[C@H](O)[C@H]2O)[C@@H](O)[C@H](O)[C@H]1O)c1ccccc1` [AMYGDALIN], for which the IC50 result was “Not Active” and the Ki entry is reported as “Not Active”.

Turning to `CNC(=O)Oc1ccc2c(c1)[C@]1(C)CCN(C)[C@@H]1N2C` [PHYSOSTIGMINE], the IC50 result is listed as “Not Active” and the Ki result is listed as “Not Active”.

Turning to `Nc1nc2c(ncn2COC(CO)CO)c(=O)[nH]1` [GANCICLOVIR], the IC50 entry is “Not Active” and the Ki result is listed as “Not Active”.
